Consider two molecules from publication PMC9232612, “A phase 1b randomised controlled trial of a glucagon-like peptide-1 and glucagon receptor dual agonist IBI362 (LY3305677) in Chinese patients with type 2 diabetes” (Nature Communications, 2022).

Data set [1] in a line: Non-compartmental pharmacokinetics of IBI362 in plasma. The class given is in vivo. As to conditions: human, sc; for AUC(0-t): n=8, read-out: AUC0-168h, geometric mean (CV%); for Cmax: n=8, read-out: Cmax, geometric mean (CV%). An excerpt: Standard non-compartmental pharmacokinetics methods were used to analyze IBI362 plasma concentration data using Pkanalix 2020R1 (Lixoft, Antony, France). Secondary efficacy outcomes included change from baseline to week 12 in HbA1c, fasting plasma glucose (FPG), fasting insulin levels, change from baseline to week 12 in post-mixed-meal tolerance test (post-MTT) glucose, insulin, C peptide, GLP-1 and OXM levels, as well as seven-point self-measured blood glucose (SMBG) profile.
Safety analyses were done in the safety population (defined as all patients who received at least one dose of the study treatment). Pharmacokinetic analyses were done in the pharmacokinetic population (defined as all patients who received at least one dose of IBI362 and had at least one valid plasma concentration assessment). Efficacy analyses were done in the efficacy population (defined as all patients who received at least one dose of the study treatment and had baseline and at least one post-baseline HbA1c assessment). Immunogenicity analyses were done in the immunogenicity population (defined as all patients who received at least one dose of the study treatment and had at least one post-baseline ADA result). […]
Table 3. PK/PD Sampling Schedule
sampling time hour hour hour hour 1 hour hour hour for
collection - - min min ± 30 mi 1h 2h 3h 4h 5h - ± 2h - min min - ± 2h - min min - - 2h 12h
Drug √ √ √ √ √ √ √ √ √ √ √ √ √ √ √
PK Sampling ● ● ● ● ● ● ● ● ● ● ● ● ● ● ● ● ● ● ● ● ● ● ●
1. PK sampling time points: Week 1 (intensive PK) PK sampling points: within 1 h before administration, 4 h ± 10 min, 8 h ± 20 min, 12 h ± 30 min, 24 h ± 1 h (Day 2), 48 h ± 2 h (Day 3), 72 h ± 3 h (Day 4), 96 h
± 4 h (Day 5), 120 h ± 5 h (Day 6) and within 1 h before administration on Day 8. Week 4: D22 for 48h ± 2h. Sparse sampling in Week 5: within 1 h before administration on Day 29, 4 h ± 10 min, 8 h ± 20 min after
administration and within 1 h before administration on Day 36. Week 8: D50 48h ± 2h. Sparse sampling in Week 9: within 1 h before administration on Day 57, 4 h ± 10 min, 8 h ± 20 min after administration and within
1 h before administration on Day 64. Sparse sampling at Week 12: Within 1h before administration, 48h ± 2h after administration (D80) and 168h ± 12h after administration (D85) on D78. If a patient fails to complete
the study and withdraws from the study prematurely, PK samples will be collected at early termination visit. Three (3) mL samples will be collected at each blood collection site and detailed procedures will be provided
in the central laboratory manual.
2. PD sampling (insulin/C-peptide/plasma glucose/glucagon/OXM/GLP-1) points: Week 1: within 48 hours ± 2 hours after dosing (Day 3), within 1 hour before dosing on Day 8; Week 5: within 1 hour before dosing
on Day 29; Week 9: within 1 hour before dosing on Day 57; Week 12: within 1 hour before dosing on D78 and 168 hours ± 12 hours after dosing (D85). PD samples will be collected at the early termination visit, if a
patient withdraw early due to failure to complete the study. All PD sampling will be performed in the fasted state. A total of 9 mL will be collected from each blood collection site, and the detailed operation process will
be described in the central laboratory manual.

For data set [2], the system named is Chinese patients with T2D. The experiment in a line: Lipids (total cholesterol, LDL cholesterol, triglycerides). The class given is in vivo, human. As to conditions: mean. How it is done: Fig. S8: Change from baseline in lipids levels at week 12.
Data are plotted as means +/- SD. IBI362 3.0 mg n = 7; IBI362 4.5 mg n = 5; IBI362 6.0 mg n = 8; Pooled placebo n = 10; Dulaglutide n = 6. CFB = change from baseline; LDL = low density lipoprotein; SD = standard deviation. Source data are provided as a Source Data file.
Total cholesterol LDL cholesterol Triglycerides
CFB in lipids at week 12 (mmol/L),
(1 picture or pasted object on this page, not shown here) […]
Table 4 Routine laboratory safety assessments […]
Lipids Total cholesterol (TC), triglyceride (TG), high-density lipoprotein cholesterol (HDL-C), and low-density lipoprotein cholesterol (LDL-C). […]

Another data set can be described thus: Body-mass index (BMI). The class given is in vivo, human. As to conditions: mean. An excerpt:
Exploratory outcomes included change from baseline in body weight, waist circumference, body-mass index (BMI) and change in homeostatic model assessment of β-cell function (HOMA-β) and insulin resistance (HOMA-IR).

Another data set has as its system diet-induced obese mice. To be noted: preclinical data quoted in the protocol, ref not given; cited from earlier work. An excerpt:
page 42: IBI362 Innovent Biologics (Suzhou) Co., Ltd. CIBI362A101 3%, abdominal obesity [waist circumference ≥ 90 cm (male) or ≥ 85 cm (female)] patients up to 45. 4% [15]. Although the occurrence of obesity is low compared with Caucasians, body fat tends t o accumulate in the abdominal cavity which is more likely to form abdominal obesity. Weight gain is an independent risk factor for the development of T2DM. Increased body weight or waist circumference can aggravate insulin resistance, increase the risk of T2DM, and the difficulty of glycemic control. Compared with patients with obesity ...

The subject of the next data set is mouse glucagon receptors. To be noted: in vitro; cited from earlier work. An excerpt: (§1) IBI362 (also known as LY3305677) is a once-weekly synthetic peptide analogue of mammalian OXM, with a fatty-acyl moiety to extend the half-life[13].
In a further data set the test system is human glucagon receptors. As to conditions: in vitro; cited from earlier work.
Text: as §1

Another data set deals with mouse GLP-1 receptors. As to conditions: in vitro; cited from earlier work.
Text: as §1

The next data set concerns mice. As to conditions: cited from earlier work.
Text: as §1

For the next data set, the system named is human GLP-1 receptors. To be noted: in vitro; cited from earlier work.
Text: as §1

The mark [3] stands for this setting: after the first dose (1.0 mg s.c.), 3.0 mg cohort.
Where [4] appears, read: after the first dose (1.5 mg s.c.), 4.5 mg cohort.
Setting [5] is: after the first dose (2.0 mg s.c.), 6.0 mg cohort.

Like-named read-outs stand apart in the source and are kept apart here.

In the case of `CC(C)C[C@H](NC(=O)[C@H](CC(C)C)NC(=O)[C@H](Cc1c[nH]c2ccccc12)NC(=O)[C@H](CCC(=O)O)NC(=O)[C@@H](NC(=O)[C@H](Cc1ccccc1)NC(=O)[C@H](CCC(=O)O)NC(=O)[C@H](CCCCNC(=O)COCCOCCNC(=O)COCCOCCNC(=O)CC[C@H](NC(=O)CCCCCCCCCCCCCCCCCCC(=O)O)C(=O)O)NC(=O)[C@H](C)NC(=O)[C@H](CCCCN)NC(=O)[C@H](CCCCN)NC(=O)[C@H](CCC(=O)O)NC(=O)[C@H](CC(=O)O)NC(=O)[C@H](CC(C)C)NC(=O)[C@H](Cc1ccc(O)cc1)NC(=O)[C@H](CCCCN)NC(=O)[C@H](CO)NC(=O)[C@H](Cc1ccc(O)cc1)NC(=O)[C@H](CC(=O)O)NC(=O)[C@H](CO)NC(=O)[C@@H](NC(=O)[C@H](Cc1ccccc1)NC(=O)[C@@H](NC(=O)CNC(=O)[C@H](CCC(N)=O)NC(=O)C(C)(C)NC(=O)[C@@H](N)Cc1c[nH]cn1)[C@@H](C)O)[C@@H](C)O)C(C)C)C(=O)N[C@@H](CCC(=O)O)C(=O)NCC(=O)NCC(=O)N1CCC[C@H]1C(=O)N[C@@H](CO)C(=O)N[C@@H](CO)C(=O)NCC(N)=O` [IBI362], the time to peak (Tmax) in data set [1] (after first s.c. dose, all IBI362 cohorts, n=24, read-out: median Tmax) was around 72 h; in [1] (after the first dose (1.0 mg s.c.), 3.0 mg cohort, n=8, read-out: Tmax, median (range)), 48.2 h; in data set [1] (after the first dose (1.5 mg s.c.), 4.5 mg cohort, n=8, read-out: Tmax, median (range)), 72.2 h; in data set [1] (after the first dose (2.0 mg s.c.), 6.0 mg cohort, n=8, read-out: Tmax, median (range)) it was 84 h. The results for the AUC(0-t) in data set [1] (setting [3]), in data set [1] (setting [4]) and in data set [1] (setting [5]) were 12300 ng·h/mL, 16500 ng·h/mL and 22100 ng·h/mL, respectively. Besides, the peak concentration (Cmax) in data set [1] (setting [3]) stood at 89.5 ng/mL; in data set [1] (setting [4]), 109 ng/mL; in [1] (setting [5]) it was 170 ng/mL. Also, the “Change from baseline to week 12 in LDL cholesterol” value in data set [2] (IBI362 3.0 mg) is -0.33 mmol/L; in [2] (IBI362 4.5 mg), -1.15 mmol/L; in [2] (IBI362 6.0 mg) it was -0.90 mmol/L. In addition, the “Change from baseline to week 12 in total cholesterol” value in data set [2] (IBI362 3.0 mg) is given as -0.71 mmol/L; in data set [2] (IBI362 4.5 mg) it was -1.68 mmol/L; in data set [2] (IBI362 6.0 mg), -1.17 mmol/L. For the same molecule, the “Change from baseline to week 12 in triglycerides” value is -0.83 mmol/L in data set [2] (IBI362 3.0 mg), -0.23 mmol/L in data set [2] (IBI362 4.5 mg) and -0.66 mmol/L in data set [2] (IBI362 6.0 mg). Further, the “Change from baseline to week 12 in BMI” value in the data set “Body-mass index (BMI)” (IBI362 3.0 mg) is listed as -0.38 kg/m2; in the data set “Body-mass index (BMI)” (IBI362 4.5 mg), -1.25 kg/m2; in “Body-mass index (BMI)” (IBI362 6.0 mg), -1.36 kg/m2. The “weight loss effects (decreased appetite, weight loss)” value with diet-induced obese mice was “significant weight loss effects”. For the same molecule, the binding result in the data set on mouse glucagon receptors, with human glucagon receptors, in the data set with mouse GLP-1 receptors and in the data set with human GLP-1 receptors was “potently bound” in each case. Besides, in the data set with mice (both Gcgr KO and Glp1r KO settings), the body weight result is recorded as “decreased body weight”. The energy expenditure entry in the data set with mice (mice) is listed as “increased energy expenditure”. Also, in the data set on mice (mice), the glucose control result is “improved glucose control”.
Regarding “Dulaglutide: open-label active reference, subcutaneously once weekly at a fixed dose of 1.5 mg [reference compound]”, in data set [2] (Dulaglutide group), the “Change from baseline to week 12 in LDL cholesterol” value was -0.32 mmol/L, the “Change from baseline to week 12 in total cholesterol” value is -0.58 mmol/L and the “Change from baseline to week 12 in triglycerides” value is reported as -0.58 mmol/L. Further, the “Change from baseline to week 12 in BMI” value in “Body-mass index (BMI)” (Dulaglutide group) was -0.19 kg/m2.
